Results reported in the supplement of paper PMC8671470.

Tests used:
Settings in all cases: 72 h
[1] = system: myeloid leukemia patient primary cells Pat.10; experiment: cell viability (% survival relative to DMSO control); higher = less cytotoxic
In short: (§1)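 Where an area under the curve appears, it was computed with the drc and PharmacoGx R packages from log-logistic fits. Those fits used four parameters. The underlying viability data came from CellTiter-Glo after 72 h, normalised to DMSO and 10 μM proteasome-inhibitor wells, with thawed, Ficoll-purified AML or CML patient mononuclear cells at 10,000 cells/well in RPMI 1640 with 10% FBS on 384-well plates pre-printed with 70 compounds at five tenfold concentrations (1–10,000 nM) in duplicate.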

[2] = system: myeloid leukemia patient primary cells Pat.11; experiment: as above
In short: as §1

[3] = system: myeloid leukemia patient primary cells Pat.12; experiment: as above
In short: as §1

[4] = system: myeloid leukemia patient primary cells Pat.13; experiment: as above
In short: as §1

[5] = system: myeloid leukemia patient primary cells Pat.14; experiment: as above
In short: as §1

[6] = system: myeloid leukemia patient primary cells Pat.15; experiment: as above
In short: as §1

[7] = system: myeloid leukemia patient primary cells Pat.1; experiment: as above
In short: as §1

[8] = system: myeloid leukemia patient primary cells Pat.2; experiment: as above
In short: as §1

[9] = system: myeloid leukemia patient primary cells Pat.3; experiment: as above
In short: as §1

[10] = system: myeloid leukemia patient primary cells Pat.4; experiment: as above
In short: as §1

[11] = system: myeloid leukemia patient primary cells Pat.5; experiment: as above
In short: as §1

[12] = system: myeloid leukemia patient primary cells Pat.6; experiment: as above
In short: as §1

[13] = system: myeloid leukemia patient primary cells Pat.7; experiment: as above
In short: as §1

[14] = system: myeloid leukemia patient primary cells Pat.8; experiment: as above
In short: as §1

[15] = system: myeloid leukemia patient primary cells Pat.9; experiment: as above
In short: as §1

KU-812 = experiment: cell viability (% survival relative to DMSO control, bortezomib = 0%); higher = less cytotoxic
In short: (§2)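 Fifteen myeloid leukaemia cell lines (10 AML, 5 CML) were seeded at a density titrated to the linear growth range into 384-well plates pre-printed with compounds at 1, 10, 100, 1000 or 10000 nM in duplicate. Plates were incubated for 72 h at 37 °C with 5% CO2. Viability was then read by CellTiter-Glo luminescence. Each value is percent survival averaged over the duplicates, with vehicle set to 100% and a 10 µM positive control to 0%.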

MOLM-13 = experiment: as above
In short: as §2

NOMO-1 = experiment: as above
In short: as §2

THP-1 = experiment: as above
In short: as §2

## Clc1cc(Cl)c(OCC#CI)cc1Cl [Haloprogin]
[1]; 1 nM
  cell viability: 43.6%
[1]; 10 nM
  cell viability: 75.4%
[1]; 100 nM
  cell viability: 46.9%
[1]; 1000 nM
  cell viability: 23.9%
[1]; 10000 nM
  cell viability: 93.2%
[2]; 1 nM
  cell viability: 94.1%
[2]; 10 nM
  cell viability: > 100%
[2]; 100 nM
  cell viability: 96%
[2]; 1000 nM
  cell viability: 81.8%
[2]; 10000 nM
  cell viability: 1.14%
[3]; 1 nM
  cell viability: 92.9%
[3]; 10 nM
  cell viability: 96.3%
[3]; 100 nM
  cell viability: 94.2%
[3]; 1000 nM
  cell viability: 67.1%
[3]; 10000 nM
  cell viability: 0.0486%
[4]; 1 nM
  cell viability: 88.1%
[4]; 10 nM
  cell viability: 86%
[4]; 100 nM
  cell viability: 91%
[4]; 1000 nM
  cell viability: 67.8%
[4]; 10000 nM
  cell viability: 26.3%
[5]; 1 nM
  cell viability: 88.5%
[5]; 10 nM
  cell viability: 96.7%
[5]; 100 nM
  cell viability: 68.3%
[5]; 1000 nM
  cell viability: 7.52%
[5]; 10000 nM
  cell viability: < 0%
[6]; 1 nM
  cell viability: 85.7%
[6]; 10 nM
  cell viability: 98.8%
[6]; 100 nM
  cell viability: 85.4%
[6]; 1000 nM
  cell viability: 66.8%
[6]; 10000 nM
  cell viability: 6.74%
[7]; 1 nM
  cell viability: 91.8%
[7]; 10 nM
  cell viability: 99.9%
[7]; 100 nM
  cell viability: 82%
[7]; 1000 nM
  cell viability: 48.3%
[7]; 10000 nM
  cell viability: 14.1%
[8]; 1 nM
  cell viability: 93.8%
[8]; 10 nM
  cell viability: 96.9%
[8]; 100 nM
  cell viability: 92.1%
[8]; 1000 nM
  cell viability: 65%
[8]; 10000 nM
  cell viability: < 0%
[9]; 1 nM
  cell viability: > 100%
[9]; 10 nM
  cell viability: 99.9%
[9]; 100 nM
  cell viability: 92.4%
[9]; 1000 nM
  cell viability: 1.81%
[9]; 10000 nM
  cell viability: < 0%
[10]; 1 nM
  cell viability: 88.7%
[10]; 10 nM
  cell viability: 87.3%
[10]; 100 nM
  cell viability: 85.3%
[10]; 1000 nM
  cell viability: 13%
[10]; 10000 nM
  cell viability: 28.3%
[11]; 1 nM
  cell viability: 87.2%
[11]; 10 nM
  cell viability: 69.7%
[11]; 100 nM
  cell viability: 2.24%
[11]; 1000 nM
  cell viability: < 0%
[11]; 10000 nM
  cell viability: 0.912%
[12]; 1 nM
  cell viability: > 100%
[12]; 10 nM
  cell viability: > 100%
[12]; 100 nM
  cell viability: 93.3%
[12]; 1000 nM
  cell viability: 54.7%
[12]; 10000 nM
  cell viability: < 0%
[13]; 1 nM
  cell viability: 72.1%
[13]; 10 nM
  cell viability: > 100%
[13]; 100 nM
  cell viability: > 100%
[13]; 1000 nM
  cell viability: 3.48%
[13]; 10000 nM
  cell viability: < 0%
[14]; 1 nM
  cell viability: 66.4%
[14]; 10 nM
  cell viability: > 100%
[14]; 100 nM
  cell viability: 81.4%
[14]; 1000 nM
  cell viability: 67.1%
[14]; 10000 nM
  cell viability: 1.78%
[15]; 1 nM
  cell viability: 80.9%
[15]; 10 nM
  cell viability: 62.4%
[15]; 100 nM
  cell viability: 43.4%
[15]; 1000 nM
  cell viability: 3.45%
[15]; 10000 nM
  cell viability: 3.68%
KU-812; 1 nM
  cell viability: 104%
KU-812; 10 nM
  cell viability: 95%
KU-812; 100 nM
  cell viability: 107%
KU-812; 1000 nM
  cell viability: 80.6%
KU-812; 10000 nM
  cell viability: 2.77%
MOLM-13; 1 nM
  cell viability: 100%
MOLM-13; 10 nM
  cell viability: 113%
MOLM-13; 100 nM
  cell viability: 112%
MOLM-13; 1000 nM
  cell viability: 108%
MOLM-13; 10000 nM
  cell viability: 6.57%
NOMO-1; 1 nM
  cell viability: 109%
NOMO-1; 10 nM
  cell viability: 103%
NOMO-1; 100 nM
  cell viability: 109%
NOMO-1; 1000 nM
  cell viability: 98.2%
NOMO-1; 10000 nM
  cell viability: 0.243%
THP-1; 1 nM
  cell viability: 101%
THP-1; 10 nM
  cell viability: 97.4%
THP-1; 100 nM
  cell viability: 100%
THP-1; 1000 nM
  cell viability: 74%
THP-1; 10000 nM
  cell viability: 0.288%
